Reference: PMC9657696, “Novel BH4-BCL-2 Domain Antagonists Induce BCL-2-Mediated Apoptosis in Triple-Negative Breast Cancer” (Cancers, 2022)
Where two headings read alike, the source gives them in different places.

Columns and labels:
[1] = test system: BT549 cells; assay: MTT cell viability assay, BT549; format: cell-based; conditions: Homo sapiens
Method: An MTT (3-(4,5-dimethylthiazol-2-yl)-2,5-diphenyltetrazolium bromide)-based colorimetric assay was performed to measure the cell viability. On a 96-well plate, cells were seeded at a density of 3000–5000 cells/well. The cell number for the assay was decided based on the exponential growth of untreated cells. The cells were treated with compounds for 72 h followed by incubation with MTT for 4 h at 37 °C. The formazan crystals were dissolved in DMSO and absorbance was measured at 540 nm. The percentage viability was calculated as % cell viability = (OD treated cells/OD control cells) × 100, and the IC50 was estimated by curve-fitting using the non-linear regression of a dose–response curve. The experiments were repeated at least two to three times.
The top 29 lead molecules, guided by the in silico results, were subjected to further in vitro validation by assessing the cellular cytotoxicity in both cancer (Figure 3a) and normal cell lines (Supplementary Figure S2a) using the MTT assay. Moreover, we performed MTT (Supplementary Figure S3c) and Annexin V assays on an additional cell line, BT549, a triple-negative breast cancer model, to validate the activity of the compounds (Supplementary Figure S4). […] We also provided the AUC plots for the top three compounds for a better understanding of the activity (Supplementary Figure S5). […]

[2] = test system: MDA-MB-231 xenografts; assay: MDA-MB-231 xenograft in athymic mice; format: in vivo
Method: Mice were sheltered in the animal facility of Sri Ramachandra Medical College and Research Institute (Chennai, India), which has been certified as a pathogen-free animal house for performing mice experiments. All the methods were carried out according to the IAEC guidelines and regulations. Experimental procedures were framed and approved by the Institutional Animal Ethical Committee (IAEC) (IAEC approval number: IAEC/57/SRIHER/639/2019). The entire study was in accordance with the ARRIVE guidelines to ensure the safety of the animals. The sizes of the mice groups were chosen in accordance with statistical significance; the measurements and analysis were performed in an unbiased manner.
4–6 week-old female athymic mice were transplanted with MDA-MB-231 triple-negative breast tumor cells. The growth media with MDA-MB-231 cells and Matrigel (BD Biosciences) at a 1:1 ratio was mixed and injected into mice. The tumor lengths and widths were measured with an electronic caliper 2–3 times a week. The tumor volume was calculated using the formula: (length × width^2)/2. All of the mice were randomized after 10 days, as the tumor volume reached approximately 80–90 mm^3. A total of 25 mice were sorted into 5 treatment groups, followed by a compound treatment (SM216, SM396, SM949, and ABT199) or vehicle (n = 5 for each group). The drug compounds were formulated in PBS and administrated as i.p doses (100 mg/Kg w) for two schedules per week. Tumor growth inhibition (TGImax) was calculated using the following equation: (1) Tumor Growth Inhibition =1−mean of volume of treated at day x−mean of volume treated at day 0/mean of volume of control at day x−mean of volume of control at day 0×100
As the tumor size exceeded 600 mm^3, we euthanized the mice for ethical reasons. The euthanasia procedure used was carbon dioxide asphyxiation followed by cervical dislocation. The mean of the tumor volume ± SEM for different time points was represented until we sacrificed at least one mouse in a group.
To test the in vivo anti-cancer efficacy of the novel small molecules viz. SM216, SM396, and SM949, 4–6 weeks old female athymic mice were xenografted with MDA-MB-231 cells on the mammary fat pads and palpable tumors were induced. […] Tumor volumes were measured at regular intervals and the data were tabulated. […] The growth kinetics and maximal tumor growth inhibition (TGImax) are depicted as tumor volumes (five groups of mice treated with different drugs) in Figure 6e,f. The average tumor volume for all groups on day 0 of treatment was 92.77 mm^3. We observed that all three lead molecules inhibited tumor growth efficiently compared to the vehicle control. […] These compounds achieved regression of 60% after 20 days of treatment. […] Moreover, these compounds were well tolerated with no weight loss and hemolysis in all treatment groups. The survival was 100% for all treatment mice groups until the termination of the study. […] A decrease in the expression of PCNA was observed upon treatment with SM396 compared to the vehicle control.

- IC50 ([1]; BT-549, Supplementary Figure S3c legend, read-out: IC50 (dose-response curve fitting)): 7.19 µM
- IC50 ([1]; BT-549, read-out: IC50 (non-linear regression of dose-response curves)): 7.2 µM
SMILES: CC1(C)CCC(CN2CCN(c3ccc(C(=O)NS(=O)(=O)c4ccc(NCC5CCOCC5)c([N+](=O)[O-])c4)c(Oc4cnc5[nH]ccc5c4)c3)CC2)=C(c2ccc(Cl)cc2)C1 [ABT-199, venetoclax]
- Tumor Volume, Mean ([2]; Day 0, i.p. 100 mg/kg, two schedules per week): 95.35 mm^3
- Tumor Volume, Mean ([2]; Day 6, i.p. 100 mg/kg): 162.15 mm^3
- Tumor Volume, Mean ([2]; Day 9, i.p. 100 mg/kg (column head printed SEM)): 313.94 mm^3
- Tumor Volume, Mean ([2]; Day 13, i.p. 100 mg/kg): 313.03 mm^3
- Tumor Volume, Mean ([2]; Day 15, upon 4 doses, i.p. 100 mg/kg): 371.94 mm^3
- Tumor Volume, Mean ([2]; Day 17, i.p. 100 mg/kg): 424.83 mm^3
- Tumor Volume, Mean ([2]; Day 20, i.p. 100 mg/kg): 382.6 mm^3
